The results in this text go back to publication PMC6309379 (Journal of medicinal chemistry, 2018).

The structures appear in SMILES notation.

One assay relates to MOLM13 cells. Kind of assay: Cell cycle study, propidium iodide staining. In kind it is cell-based, human. The note with it: MOLM13, 1 μM, 24 h.
In a further assay the target is BRD4-BD1 (Homo sapiens, UniProt O60885). Kind of assay: BROMOscan. The following applies: 1 uM, control DMSO. In kind it is binding.
Another assay has as its system PLK kinases (PLK1–3). Kind of assay: KINOMEscan. It is filed as binding. The following applies: 1 uM, control DMSO.

On to `CC[C@@H]1C(=O)N(C)c2cnc(Nc3ccc(C(=O)NC4CCN(C)CC4)cc3OC)nc2N1C1CCCC1` [BI-2536, reference compound], for which, in the assay on MOLM13 cells, the cell cycle arrest result is recorded as “G1/G2 arrest”.

`COc1cc(C(=O)NC2CCN(C)CC2)ccc1Nc1ncc2c(n1)N(C1CCCC1)[C@H](C)C(=O)N2C` [Compound 5, (R)-4-((8-cyclopentyl-5,7-dimethyl-6-oxo-5,6,7,8-tetrahydropteridin-2-yl)amino)-3-methoxy-N-(1-methylpiperidin-4-yl)benzamide]: on BRD4-BD1, the “BRD4-BD1 % of control” value is on record as 12 % of control. Further, the “PLK kinases % of control” value in the assay with PLK kinases (PLK1–3) is reported as 0.3–0.5 % of control.

`C[C@@H]1C(=O)N(C)c2cnc(Nc3ccc(C(=O)NC4CCN(C)CC4)cc3OC3CCCC3)nc2N1C1CCCC1` [Compound 23, (R)-4-((8-cyclopentyl-5,7-dimethyl-6-oxo-5,6,7,8-tetrahydropteridin-2-yl)amino)-3-(cyclopentyloxy)-N-(1-methylpiperidin-4-yl)benzamide]: the cell cycle arrest result in the assay on MOLM13 cells is “cell cycle arrest in the G1/G2 stage of the cell cycle”.
